Assays:
[1] = tested on: Human immunodeficiency virus 1; experiment: Selectivity ratio of EC50 for antiviral activity against NNRTI-resistant HIV1 harboring RTK103N mutant gene to EC50 for antiviral activity against wild-type HIV1 3B; format: functional
[2] = tested on: Human immunodeficiency virus 1; experiment: Antiviral activity against HIV1 3B infected in human MT-4 cells by two fold dilution method in presence of 10% FBS; format: functional, organism-based; conditions: Human immunodeficiency virus 1, 3B, MT4
[3] = tested on: Human immunodeficiency virus 1; experiment: Antiviral activity against 0.01 MOI HIV1 3B infected in human MT-2 cells by two fold dilution method in presence of 100% human serum; format: functional, organism-based; conditions: Human immunodeficiency virus 1, 3B, MT2
[4] = tested on: Human immunodeficiency virus 1; experiment: Selectivity ratio of EC50 for antiviral activity against PI-resistant HIV1 harboring […], L90M mutant gene to EC50 for antiviral activity against wild-type HIV1 3B; format: functional
[5] = tested on: Human immunodeficiency virus 1; experiment: Selectivity ratio of EC50 for antiviral activity against PI-resistant HIV1 harboring […], V82A and L90M mutant gene to EC50 for antiviral activity against wild-type HIV1 3B; format: functional
[6] = tested on: Human immunodeficiency virus 1; experiment: Selectivity ratio of EC50 for antiviral activity against HIV1 harboring E92V, G140S and V151A mutation in catalytic core domain of integrase to EC50 for antiviral activity against wild-type HIV1 3B; format: functional
[7] = target: Human immunodeficiency virus type 1 integrase (Human immunodeficiency virus 1, UniProt Q7ZJM1); experiment: Inhibition of HIV1 integrase strand transfer activity
Sequence of Human immunodeficiency virus type 1 integrase (Q7ZJM1 whole entry): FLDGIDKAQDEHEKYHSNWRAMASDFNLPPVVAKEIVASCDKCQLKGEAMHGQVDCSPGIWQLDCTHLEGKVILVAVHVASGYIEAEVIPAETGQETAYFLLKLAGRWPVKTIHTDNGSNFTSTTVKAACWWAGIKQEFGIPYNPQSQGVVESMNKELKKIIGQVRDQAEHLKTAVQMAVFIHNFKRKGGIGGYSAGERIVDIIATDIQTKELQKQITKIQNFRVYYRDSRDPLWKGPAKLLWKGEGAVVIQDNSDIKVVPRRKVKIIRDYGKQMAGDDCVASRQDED

[8] = tested on: Human immunodeficiency virus 1; experiment: Selectivity ratio of EC50 for antiviral activity against GS-9160-resistant HIV1 selected after 6 passages to EC50 for antiviral activity against wild-type HIV1 3B; format: functional
[9] = Cytotoxicity against human SupT1 cells infected with HIV1 3B; format: cell-based, SUP-T1; conditions: SupT1 cells infected with HIV-1 3B
[10] = tested on: Human immunodeficiency virus 1; experiment: Antiviral activity against HIV1 3B infected in human MT-2 cells by two fold dilution method in presence of 10% FBS; format: functional, organism-based; conditions: Human immunodeficiency virus 1, 3B, MT2
[11] = tested on: Human immunodeficiency virus 1; experiment: Selectivity ratio of EC50 for antiviral activity against NRTI-resistant HIV1 harboring RT-6TAMs mutant gene to EC50 for antiviral activity against wild-type HIV1 3B; format: functional
in vitro = conditions: human, MT2 cells
Description: Selectivity index, ratio of CC50 for human MT2 cells to EC50 for HIV1 3B in presence of 10% FBS

[12] = Cytotoxicity against human uninfected MT2 cells by three fold dilution method in presence of 10% FBS
[13] = tested on: Human immunodeficiency virus 1; experiment: Selectivity ratio of EC50 for antiviral activity against EFV-resistant HIV1 selected after 3 passages to EC50 for antiviral activity against wild-type HIV1 3B; format: functional

| SMILES | Ratio EC50 [1] | EC50 [2] [nM] | EC50 [3] [nM] | Ratio EC50 [4] | Ratio EC50 [5] | Ratio EC50 [6] | IC50 [7] [nM] | Ratio EC50 [8] | CC50 [9] [nM] | EC50 [10] [nM] | Ratio EC50 [11] | selectivity ratio (in vitro) | CC50 [12] [nM] | Ratio EC50 [13] |
| --- | --- | --- | --- | --- | --- | --- | --- | --- | --- | --- | --- | --- | --- | --- |
| CN(c1c2c(c(O)c3ncccc13)C(=O)N(Cc1ccc(F)cc1)C2)S(C)(=O)=O | 1 | 0.7 | 12 | 1 | 1 | 583 | 28 | 26 | 600 | 2.1 | 2 | 1900 | 4000 | 0.9 |
| O=C(NCc1ccc(F)cc1)c1nc(N2CCCCS2(=O)=O)c2cccnc2c1O | 1 | – | 41 | 1 | 1 | 371 | 44 | 29 | 1900 | 2 | 1 | 1500 | 3000 | 1.2 |

Reference: ChEMBL document CHEMBL1629647, “Preclinical evaluation of GS-9160, a novel inhibitor of human immunodeficiency virus type 1 integrase” (Antimicrob Agents Chemother, 2009)
